Row | melting point | SMILES
1 | 297 to 299 °C | NNC(=O)c1cccc(C(=O)N(NC(=O)c2ccccc2)C(=O)c2ccccc2)c1
2 | 179 °C | Cc1cccc2c1OC[C@H](NC(=O)OC(C)(C)C)C(=O)N2
3 | 200 °C | COc1cc2c(-c3cc4c(Cl)ccnc4[nH]3)cn(CCN3CCC(CCO)CC3)c2cc1OC
4 | 180 to 182 °C | CCOCc1nc2c(N)nc3cc(-c4cccnc4)ccc3c2n1CC(C)C
5 | 145 to 148 °C | CS(=O)(=O)CCOCCn1cnc2c(N)nc3ccccc3c21
6 | > 250 °C | CC(C)(C)C1CCc2nc(N)nc(N)c2C1 (configuration not stated)
7 | 112 to 114 °C | CCOC(=O)C(=CNc1ccc2nccnc2c1)C(=O)OCC
8 | 152 to 160 °C | Nc1cc(N2CCN(C(c3ccccc3)(c3ccccc3)c3ccccc3)CC2)nc(N)n1
9 | 111 to 112 °C | O=C(Oc1c(F)c(F)c(F)c(F)c1F)c1ccccc1O
10 | 67 to 68 °C | CCS(=O)(=O)c1cc(OC)c(OC)c(C(=O)Cl)c1
11 | 70 to 73 °C | Nc1cc(Cl)cc2cccnc12
12 | 137 to 138 °C | O=C(O)[C@H](COCc1ccccc1)NC1(c2ccccc2)c2ccccc2-c2ccccc21
13 | > 250 °C | CN1C(=O)COc2cc3c(cc21)OCC31C(=O)Nc2ccccc21 (configuration not stated)
14 | 186 to 187 °C | Fc1ccc(Oc2nccc(-c3c(-c4ccc(F)cc4)ncn3C3CCNCC3)n2)cc1
15 | 103 to 104 °C | CCCCn1c(=O)c2cn(S(C)(=O)=O)nc2n(CCCC)c1=O
16 | 82 to 84 °C | Cc1cc(CCC(=O)O)no1
17 | 70 to 72 °C | CC(=O)N1C(=O)N(COCc2ccccc2)C(=O)C12c1ccccc1N(CC(C)C)C(=O)N2C (configuration not stated)
18 | 134 to 136 °C | CCCCOCCOc1ccc(-c2ccc3c(c2)C=C(C(=O)Nc2ccc(S(=O)Cc4nccn4CCCC(=O)OCC)cc2)CCN3CC(C)C)cc1 (configuration not stated)
19 | 204 °C | CCOC(=O)Nc1nn(C)c2cc(OCc3ccccc3)ccc12
20 | > 250 °C | O=C1C(=NO)Nc2c(Br)cccc21
21 | 111 to 112 °C | Nc1ncnc2c1c(-c1ccc(Oc3ccccc3)cc1)cn2CCN1C(=O)c2ccccc2C1=O
22 | 69.5 to 70.5 °C | CCc1coc2cc(OCc3ccccc3)ccc12
23 | 288 to 291 °C | COC(=O)CCC(=O)Nc1ccc2c(=O)n3c(nc2c1)C(=Cc1ccccc1)CC3
24 | 124 to 125 °C | COC=C(C(=O)OC)c1csc2ccc(CBr)cc12
25 | 107 to 108 °C | CCOC(=O)C1SC(c2ccc3ccccc3c2)=NN1C(=O)CCSC(C)=O (configuration not stated)

Row | melting point | SMILES
26 | 165 °C | CN(C)CCCC(=O)N1CCOc2cc3ncc(C#N)c(Nc4ccc(F)c(Cl)c4)c3cc21
27 | 200 to 205 °C | COc1cccc2sc(Sc3ccc4c(c3)CC[C@H]3N(C)C(=O)CC[C@]43C)nc12
28 | 225 °C | CC(C)c1ccc(S(=O)(=O)c2ccccc2)cc1S(=O)(=O)NC1CCN(C(=O)c2ccccc2)CC1
29 | 142 to 143 °C | CCN1C2=C(C(=O)Nc3ccccc3F)C(=O)CCN2c2ccccc21
30 | 166 to 168 °C | Oc1ccc2c(c1O)OCC(c1ccc(F)cc1)C2 (configuration not stated)
31 | 214 to 217 °C | COc1ccc(-c2cccc(C3SC(N4CCOCC4)=NC3=O)n2)cc1-c1ccccc1 (configuration not stated)
32 | 234 to 235 °C | COc1c(NC(=O)c2cc3cccc(NC(=O)c4ccc(N)nc4)c3s2)cc(C(C)(C)C)cc1NS(C)(=O)=O
33 | 78 to 80 °C | Cc1ccc(S(=O)(=O)CCC2OCCO2)cc1
34 | 274 to 278 °C | O=c1[nH]c(=S)c2[nH]cnc2n1Cc1ccc(Cl)cc1
35 | 185 to 187 °C | Cc1ccc(-c2ccc3c(c2)C=C(C(=O)Nc2ccc(CN4CCN(CCO)CC4)cc2)CC3)cc1
36 | 130 to 132 °C | CN1C(=O)N(CC(COc2ccc(-c3cccc(C#N)c3)cc2)N(O)C=O)C(=O)C1(C)C (configuration not stated)
37 | 156 to 158 °C | CCC(O)c1cc2cc(OCC(=O)O)c(Cl)c(Cl)c2s1 (configuration not stated)
38 | 169 to 170 °C | C=Cn1ccnc1C(O)(c1ccc(C(C)(C)C)cc1)c1ccc(C(C)(C)C)cc1
39 | 244 to 245 °C | Cn1c(=O)[nH]c(=O)n(-c2cc(N)c(F)cc2Cl)c1=O
40 | 181 to 183 °C | COc1ccc(N2CCN(c3c(C)c(C)c4c(c3C)C(O)(c3ccc(C(F)(F)F)cc3)C(C)(C)O4)CC2)cc1 (configuration not stated)
41 | 161 to 164 °C | c1c(C2CC2)n[nH]c1C1CC1
42 | 168 to 170 °C | Cc1c(CC(=O)O)c2cc(OCc3ccc4ccccc4c3)ccc2n1Cc1ccc(Cl)cc1
43 | 178 °C | Cc1c(N)nc(=S)n(C)c1N
44 | 202 to 204 °C | CC1=CCC(=Nc2cc([N+](=O)[O-])ccc2O)S1
45 | 169 °C | CCCC1=C(C(=O)OCC)C(c2ccccc2OC)c2c[nH]nc2N1 (configuration not stated)
46 | 241 to 242 °C | COc1cc2ncnc(NS(=O)(=O)c3ccc(Br)cc3)c2cc1OC
47 | 228 °C | O=C(O)c1cccc(C(=O)c2ccc(Cl)cc2)c1
48 | 235 to 237 °C | NS(=O)(=O)c1ccc(-c2nn3c(-c4ccc(F)cc4)coc3c2-c2ccc(F)cc2)cc1
49 | 230 to 232 °C | COc1ccc(-n2cnc(-c3cccc(C(=O)O)c3)n2)cc1
50 | 142 to 146 °C | COc1cc(N)c(Cl)cc1C(=O)NCC1CCN(CCCCCNC(=O)c2ccc(C)cc2)CC1

Row | melting point | SMILES
51 | 187 to 190 °C | O=C(O)COc1ccc(C2=CC(=O)CC(c3ccccc3F)C2)c(Cl)c1Cl (configuration not stated)
52 | 117 °C | CC(O)C(CCCc1ccccc1)n1ncc2c(=O)[nH]c(Cc3ccc(Br)cc3)nc21 (configuration not stated)
53 | 175 °C | Cc1cccc(NC(=O)NCC(=O)N(Cc2ccccc2)c2ccccc2)c1
54 | 100 to 101 °C | COC1CC(OCc2ccccc2)C(OS(=O)(=O)c2ccc(C)cc2)C(CO)O1 (configuration not stated)
55 | 180 to 182 °C | COC(=O)N1CCN(Cc2nc(-c3ccc4c(c3)Nc3ccccc3S4)cs2)CC1
56 | 71 to 73 °C | COc1ccc(CCCC(CC(=O)O)CC(=O)O)cc1
57 | 72 to 76 °C | NC[C@@H](O)[C@H](Cc1ccccc1)N(Cc1ccccc1)Cc1ccccc1
58 | 152 to 153 °C | COP(=O)(Cc1c2ccccc2cc2ccccc12)OC
59 | 64 to 65 °C | CCCn1nnn(-c2cc(OS(C)(=O)=O)c(Cl)cc2Cl)c1=O
60 | 270 to 272 °C | CCOC(=O)c1cn2c3c(c(-c4ccccc4)c(F)cc3c1=O)OCC2C (configuration not stated)
61 | 216 °C | CCOC(=O)c1[nH]c2cc3[nH]c(C)c(C(=O)OCC)c3c(C)c2c1C
62 | 137 to 140 °C | N#Cc1cccnc1N1CCN(CC(=O)Nc2ccc(F)c(Cl)c2)CC1
63 | 143 to 144 °C | CS(=O)(=O)c1ccc(/C(=C(\CCO[N+](=O)[O-])C(=O)O)c2ccc(Cl)cc2)cc1
64 | 89 to 91 °C | Cc1cc(C)c(S(=O)(=O)NC(COc2ccccc2)C(F)(F)F)c(C)c1 (configuration not stated)
65 | 187 to 189 °C | COC(=O)c1cccc(C(=O)c2[nH]c3cc(Cl)ccc3c2N)c1
66 | 233 to 234 °C | O=C(NCc1ccccc1)c1cc([N+](=O)[O-])ccc1N[C@H]1CC[C@H](O)CC1
67 | 199 °C | CCOC(=O)COn1c2c([nH]c(=O)c1=O)CCC1=C2C=C(n2ccc(CNC(=O)C(F)(F)F)c2)CC1
68 | 97 °C | C=CCOC(=O)c1c(Cl)c(OC)cc(O[Si](C)(C)C(C)(C)C(C)C)c1C=O
69 | 63 to 65 °C | Cc1oc2cc(CCl)ccc2c1C
70 | 66 to 68 °C | CN(C)c1nc2n(n1)CCc1ccccc1-2
71 | 138 °C | CCNC(=O)Oc1cccc(NC(=O)CC(C)=O)c1
72 | 156 to 157 °C | CN1CCc2c(-c3ccc(F)cc3)c(C(=O)N(C)Cc3cc(C(F)(F)F)cc(C(F)(F)F)c3)n(C)c(=O)c2C1
73 | 145 to 148 °C | COc1ccc(C(=O)N(C(=O)c2ccc(OC)cc2)c2nc3ccc([N+](=O)[O-])cc3c(NCc3ccccc3)c2C#N)cc1
74 | 119 to 122 °C | CN(CCc1ccc(NC(N)=S)cc1)Cc1ccccc1
75 | 129 °C | Nc1cc(I)cnc1Cl

Row | melting point | SMILES
76 | 137 °C | COc1cc(NC(C)C)ccc1CN1C(=O)C(C)(c2ccccc2Cl)c2cc(Cl)ccc21 (configuration not stated)
77 | 202 to 204 °C | Oc1ccc2c(c1)SCCc1c-2n(CCCCCN2CCCC2)c2ccc(O)cc12
78 | 142 to 146 °C | CC12CC(=O)C3C(CCC4CC(O)CCC43C)C1CCC2C(=O)OCC#N (configuration not stated)
79 | 205 to 207 °C | COC(=O)c1cc(S(C)(=O)=O)c(NS(=O)(=O)c2sc3ccc(Cl)cc3c2C)cc1C
80 | 94 °C | CCOc1ccccc1OCC(O)CNC(C)=CC(=O)c1cccnc1 (single isomer, unassigned; (-))
81 | 180 to 181 °C | Cc1nc(C(=O)O)c(OCc2ccccc2)c(=O)n1C
82 | 148 to 150 °C | COC(=O)COc1ccc(-c2cccc3sc4ccccc4c23)cc1
83 | 232 °C | CC(=O)Nc1cc(Cl)c([N+](=O)[O-])cc1NC(C)=O
84 | 215 to 217 °C | CN1CCN(Cc2ccc(NC(=O)c3nsc4cc(Oc5ccnc(N)n5)ccc34)cc2C(F)(F)F)CC1
85 | 210 to 211 °C | CCCc1nc2c(N)nc3ccccc3c2n1CCCCCC(N)=O
86 | 37 to 38 °C | C(=Cc1ccccc1)Cn1ccnc1
87 | 147 to 151 °C | OC(Cc1ccccn1)(c1ccccc1)c1ccccc1
88 | 161 to 162 °C | Cc1[nH]cnc1CSCCNc1[nH]ccc1[N+](=O)[O-]
89 | 235 °C | c1ccc(-c2ccc3nc(C4(c5ccc6nccnc6c5)N=c5ccccc5=N4)[nH]c3c2)cc1
90 | 148 to 149 °C | COc1cccc(-n2nc(Sc3ccc(Cl)cc3)c(C)c(C#N)c2=O)c1
91 | 145 to 146 °C | Oc1c2c(nn1-c1ccccn1)CCc1ccccc1-2
92 | 172 to 174 °C | CN1C(=O)C(c2ccc(OC(F)F)cc2)(c2cccc(C3CC(=O)C3(C)C)c2)N=C1N (configuration not stated)
93 | 115 °C | CCOC(=O)CC(NC(=O)c1cc(NC(=O)OC(C)(C)C)cc(OCc2ccccc2)c1)c1ccccc1 (racemic)
94 | 142 to 144 °C | O=S(=O)(Br)c1cccc2cccnc12
95 | 104 to 105 °C | CC1(C)OC(c2cccs2)CN1C(=O)C(Cl)Cl (configuration not stated)
96 | 184 to 185 °C | Cc1ccsc1C=C(O)C(=O)O
97 | 136 to 137 °C | CNC(=O)Cc1ccc2ccn(C3CCN(CCc4ccccc4F)CC3)c2c1

Source: a melting point compilation (Tetko et al.; mined from patent text by program, amines drawn as free bases though some values may be those of a salt)
